SMILES strings stand for the structures.

Test [1] relates to A118. In words: Effect of OHOD on cancer cells in culture (Table 2). It counts as cell-based, human. Also on record: key to Anti-tumour effect: + [inhibition of growth]; ++ [total halt of growth]; +++ [total removal of tumour cells]; key to Mechanism of action: P [anti-proliferative]; D [differentiation]; A [apoptosis]. The note with it: A118, Glioma. As for the experimental part: (§1) Also, a series of α-derivatives of cis-monounsaturated fatty acids were used to investigate their effectiveness in cancer treatment. Two types of experiment were performed. Firstly, the dependency of the anti-tumour effect on concentration was investigated. To perform these experiments, human lung cancer cells (A549) were cultivated in RPMI medium, supplemented with 10% foetal bovine […], 10 mM Hepes (pH 7.4), 2 mM glutamine, 2 g/l bicarbonate, 1 g/l glucose, 100 units/ml penicillin, 0.1 mg/ml streptomycin, 0.25 μg/ml Amphotericin B, at 37° C. and in the presence of 5% CO2. In a first experimental series, these cells were treated with various concentrations (0-400 μM) of OHOD and MOD11 and the number of cells was determined by flow cytometry (FIG. 3A). […] In a second series, the anti-tumour effectiveness on A549 lung cancer cells was investigated at a single concentration (150 μM) and a time of 48 hours (FIG. 3B). […] Obviously, among the previous molecules, some lacked both modifications on the α-carbon and the double bond in cis configuration (EO, HDO, ODO) and had no therapeutic effect.
(§2) In a second experimental series, designed to discover whether these molecules are effective in treatment of different types of tumours, the effect of OHOD at various concentrations on human cells of different types of cancer was studied. These experiments were performed as described before, except that the M220 and HT-29 cell lines were cultured in DMEM medium and the MDA-MB-231 line was incubated in Leibowitz L-15 medium supplemented with 15% foetal bovine […]. […] Where the nature of the tumour process requires, application can be topical (use on the skin of active products for the treatment of melanoma and other cutaneous abnormalities of cancerous nature), which can be considered as cosmetic treatments when attempts are made to correct aesthetic defects.

Test [2] has as its system LNcaP. Described as above. The class given is cell-based, human. Also on record: key to Anti-tumour effect: + [inhibition of growth]; ++ [total halt of growth]; +++ [total removal of tumour cells]; key to Mechanism of action: P [anti-proliferative]; D [differentiation]; A [apoptosis]. The note with it: Prostate. As for the experimental part:
as §1, §2

Test [3] concerns M220. Described as above. It counts as cell-based, human. The arrangement: key to Anti-tumour effect: + [inhibition of growth]; ++ [total halt of growth]; +++ [total removal of tumour cells]; key to Mechanism of action: P [anti-proliferative]; D [differentiation]; A [apoptosis]. The note with it: M220, Pancreas. As for the experimental part:
as §1, §2

Test [4] deals with MDA-MB-231. Described as above. The note with it: MDA-MB-231, Breast. It counts as cell-based, human. Also on record: key to Anti-tumour effect: + [inhibition of growth]; ++ [total halt of growth]; +++ [total removal of tumour cells]; key to Mechanism of action: P [anti-proliferative]; D [differentiation]; A [apoptosis]. As for the experimental part: as §1, §2
Test [5] deals with SH-SY5Y. The description is as above. It counts as cell-based, human. Also on record: key to Anti-tumour effect: + [inhibition of growth]; ++ [total halt of growth]; +++ [total removal of tumour cells]; key to Mechanism of action: P [anti-proliferative]; D [differentiation]; A [apoptosis]. Conditions: Neuroblastoma. Here is the method: as §1, §2
The subject of test [6] is T98G. Described as above. The class given is cell-based, human. The arrangement: key to Anti-tumour effect: + [inhibition of growth]; ++ [total halt of growth]; +++ [total removal of tumour cells]; key to Mechanism of action: P [anti-proliferative]; D [differentiation]; A [apoptosis]. Conditions: Glioma. As for the experimental part:
as §1, §2

The subject of test [7] is U87-MG. Described as above. The class given is cell-based, human. The arrangement: key to Anti-tumour effect: + [inhibition of growth]; ++ [total halt of growth]; +++ [total removal of tumour cells]; key to Mechanism of action: P [anti-proliferative]; D [differentiation]; A [apoptosis]. The note with it: Glioma. Here is the method:
as §1, §2

Test [8] has as its system lung cancer cells (A549). In words: Culture plate invasion model, lung cancer cells (A549). The class given is cell-based, human. The note with it: 50 μM and 100 μM, different times, vs untreated cells, p<0.05. As for the experimental part: FIG. 5A. Invasive capacity of lung cancer cells (A549) in culture, in the absence (control, C) or presence of OHOD (2-hydroxy-9-cis-octadecenoic acid) at 50 μM (M50) and 100 μM (M100) and at different times.
FIG. 5B. Invasive capacity of lung cancer cells (A549) in culture, in the absence (control, C) or presence of OHOD (2-hydroxy-9-cis-octadecenoic acid) at 50 μM (M50) and 100 μM (M100) and at different times.
Furthermore, α-derivatives of cis-monounsaturated fatty acids are capable of inducing cadherin expression. Cadherin is a cellular adhesion protein. Cells expressing cadherin are often not displaced from their tissue location as they adhere to the surrounding cells. Tumour cells that lose the capacity to synthesise this protein can migrate from the tissue in which they were generated to other body tissues where they can develop a new tumour focus by the process known as metastasis. In treatments with α-derivatives of cis-monounsaturated the fatty acids, a significant increase in cadherin levels was observed (FIG. 4). The invasive capacity of cancer cells was also investigated in a culture plate invasion model. […] Then, an area of the culture dish is scraped and the number of cells invading this region at various times, in the presence and absence of the anti-metastasis compound is counted.

In test [9] the test system is aortas of SHR rats. In words: Contractile response induced by noradrenalin in isolated aorta, organ bath. Also on record: species or system rat. Conditions: aortas pre-treated 60 minutes in organ bath at 37° C., vs vehicle, p<0.05. As for the experimental part:
FIG. 11. Effect of OHOD on the contractile response induced by noradrenalin (NA) in aortas of SHR rats. The logarithm of NA is shown on the horizontal axis and the concentration (g) is shown on the vertical axis. The aortas were treated with OHOD (filled circles) or vehicle (empty circles) for 60 minutes in an organ bath at 37° C. in Ringer medium with oxygen.
Atherosclerosis or arteriosclerosis is a pathology characterised by the loss of contractility of blood vessels. This loss is associated with diverse factors, among which is the formation of deposits on the vascular lumen giving rise to the proliferation of vascular cells, reduction of blood flow and vasoconstrictor and vasodilator responses to neurotransmitters (such as noradrenalin) and to hormones. In studies in isolated rat aorta in organ bath, it was shown that the contraction power of the aortic muscle in response to noradrenalin increased very markedly after pre-treatments with OHOD acid. In addition, all the compounds with the structure of Formula I had similar effects on vascular muscle.

Take `CCCCCCCC/C=C\CCCCCCC(O)C(=O)O` (stereo not drawn) [OHOD, α-Hydroxy-cis-Δ9-octadecenoic]: the Anti-tumour effect entry is listed as “+++” in [1]; “+++” in [2]; “++” in test [3]; “++” in test [4]; “+” in test [5]; “+++” in [6]. Also, the Anti-tumour effect result in test [7] is reported as “+++”. Besides, the Mechanism of action entry in test [1] was “D”; in test [2] it was “A”; in test [3], “A”; in test [4], “A”; in test [5], “P”; in test [6], “D”. In [7], the Mechanism of action result was “D”. In test [8], the “invasive capacity (number of invasive cells)” value is “lower invasive capacity”. Also, the “contractile response induced by noradrenalin (NA)” value in [9] is given as “much higher”.

Values taken from US9730906B2, “α-derivatives of cis-monounsaturated fatty acids for use as medicines” (UNIVERSITAT DE LES ILLES BALEARS, priority 2008, dated 2017).
